Test results reported in patent publication US20040038861A1, “Methods and compositions for normalizing lipid levels in mammalian tissues” (priority 2001, published 2004).

Legend:
soleus muscle [1] = assay: Lipid metabolites (free fatty acid, glycerol, triglyceride; enzymatic analysis) in isolated soleus muscle from normally fed rats; type: cell-based, rat
soleus muscle [2] = assay: Individual free fatty acids by gas chromatography in soleus muscle of rats fed high fat diets; set-up: species or system rat; conditions: 1 hour, GC
Text: (§1) High-fatted rats. Groups of male Wistar rats (n=21/diet) were ad libitum fed high-fat diets containing standard rat chow to which 40% (w/w) of lard, corn oil or olive oil had been added, from the time of weaning (age=21 d) until sacrifice at 50 d. Triacylglycerol from lard contains predominantly saturated fatty acids; that from corn oil […], see Table 4.
(§2) Soleus muscle tissue isolation and incuhation.Immersion and incubation media was Krebs-Henseleit buffer (KHB) containing 118.5 mM NaCl, 4.75 mM KCl, 1.18 mM MgSO4.7H2O and KH2PO4, 24.8 mM NaHCO3, 2.54 mM CaCl2 and 10 mM d-glucose. The medium was gassed continuously with 95% O2/5% CO2. […] Soleus muscles of both legs were excised keeping the tissue immersed in KHB; muscles were separated into two equal parts and transferred to the incubation flasks. At the completion of incubation the muscles were snap frozen in liquid nitrogen, and then trimmed of connective tissue and all visible fat. The muscle strips were stored at −80° C. until analysis.
(§3) Lipid extraction and chromatographic separation of fatty acids. Total lipids were extracted from muscle strips by a modified version of the method of Bligh and Dyer (Gorski et al., 1988, Mol & Cell Biochem 178:113-118; 1. Bligh et al., 1959, Can J Biochem Physiol 37: 911-917). Muscles were homogenised (Soniprep 150) in 0.4 ml of deionised water. Solvent volumes used herein were varied according to the water content of the muscle (ie muscle weight) as described (Bligh & Dyer, supra). 2 vols of methanol containing 0.005% butylated hydroxy toluene (BHT) and 1 vol chloroform were added to the muscle suspension. Homogenates were vortexed at maximum speed for 2 minutes and centrifuged at 2,500 g for 4 minutes. Supernatants were recovered and pellets re-extracted with 2 vol methanol, 1 vol chloroform and 0.8 vol 0.2 N HCl. Residues were vortexed for 2 min then centrifuged at 3,500 g for 3 min. After centrifugation the combined supernatants were diluted with 2v each of milli Q water and chloroform and the phases separated by centrifugation at 3,500 g for 4 minutes. The lower chloroform phase was recovered, neutralised by dropwise addition of 0.2 N methanolic NH4OH and evaporated down in a stream of N2. The samples were stored at −80° C. until required.
(§4) Aminopropyl phase (250 mg) was packed into 16 ml teflon columns with teflon frits placed at the top and bottom of the bonded phase. Columns were placed in a Vac Elut apparatus and washed twice with 2 ml portions of hexane (Prasad et al., 1988, J Chromato 428: 221-228; Kaluzny et al., 1985, J Lipid Res 26: 135-140). The dry lipid samples were taken up in two 0.150 ml portions of chloroform and applied to the column under atmospheric pressure. After adsorption the neutral lipids were eluted with 4 ml of chloroform-2-propanol (2:1, v/v) and the free fatty acids eluted with 4 ml of 2% acetic acid in diethyl ether. The solvent containing the free fatty acids was dried under a stream of N2.
Gas-liquid chromatographic analysis. Dry free fatty acid residues were processed for derivatisation of methyl esters by the boron trifluoride-methanol method (Prasad, supra). 1 ml of boron trifluoride in methanol (BF3) was added to each sample, the sample vials were heated at 70° C. for 5 minutes, shaken vigorously, and baked for a further 10 minutes. Once the samples reached room temperature 0.5 ml milli Q water was added, the sample vials shaken, 0.1 ml heptane was added and the sample shaken again. 0.05 ml of the top heptane layer was removed for GLC analysis. A Model HP5890 Plus Series 2 (Hewlett-Packard) gas chromatograph equipped with a DB-225 column was used to separate the methyl esters of the fatty acids and a Model HP 5890 GC with a Model HP 5973 MS (Hewlett-Packard) GC/MS used to confirm the identity of individual free fatty acids. […]

soleus muscle [3] = assay: Triglyceride and free fatty acid content (enzymatic) in isolated soleus muscle of rats fed high fat diets; type: cell-based, rat; conditions: 1 h
Text: as §1, §2, §3, §4
Determination of tissue free fatty acids and triacylglycerol concentration by enzymatic analyses. Free fatty acids were separated from total lipid, evaporated under a stream of N2 and stored at −80° C. until analysis. Samples were dissolved in 50 μl of warm ethanol (35-40° C.), and 0.625 ml of a Triton X-100 (6% w/v) solution was added once the ethanol reached room temperature. The solution was stirred for 30 min, then made up to 0.825 ml with the Triton solution. Free fatty acids were quantified using a commercial method (Boehringer Mannheim) adapted for micro analyses (Cobas Mira, Roche Diagnostics), with palmitic acid standards. Triacyl glycerol levels were quantified in the total lipid fraction (Pointe Scientific) with a glycerol standard.
Total lipid was extracted and quantitated. Results are shown in FIGS. 18A NEFA and 18B triglyceride.

[4] = rats fed diet high in olive oil

Rat amylin
soleus muscle free fatty acid content, agonist alone (soleus muscle [1]; 100 nM, 1 h, normal-fed rats (FIG. 3A, 3B)): 216 ± 26 nmol/g | triacylglycerol (triglyceride) content (soleus muscle [1]; soleus, normally fed rats, 60-min, 100 nM amylin or CGRP-1, 4.4 μM norepinephrine, control 1.17±0.15, not significant): 1.7 ± 0.26 µmol/g | intramuscular free fatty acid content (soleus muscle [1]; soleus, normally fed rats, 1 h, 100 nM amylin or CGRP-1, 4.4 μM norepinephrine, 23.7 nM insulin, control 78±21): 216 ± 22 nmol/g | intramuscular glycerol content (soleus muscle [1]; soleus, normally fed rats, 1 h, 100 nM amylin or CGRP-1, 4.4 μM norepinephrine, control 0.07±0.007): 0.03 ± 0.004 nmol/g | free fatty acid adrenic C22:4 (soleus muscle [2]; rats fed diet high in corn oil): 0.03 ± 0.003 nmol/g wwt | free fatty acid arachidic C20:0 (soleus muscle [2]; rats fed diet high in corn oil): 0.04 ± 0.002 nmol/g wwt | free fatty acid arachidonic C20:4 (soleus muscle [2]; rats fed diet high in corn oil): 0.04 ± 0.002 nmol/g wwt | free fatty acid cervonic C22:6 (soleus muscle [2]; rats fed diet high in corn oil): 0.03 ± 0.002 nmol/g wwt | free fatty acid linoleic C18:2 (soleus muscle [2]; rats fed diet high in corn oil): 0.18 ± 0.02 nmol/g wwt | free fatty acid linolenic C18:3 (soleus muscle [2]; rats fed diet high in corn oil): 0.16 ± 0.02 nmol/g wwt | free fatty acid margaric C17:0 (soleus muscle [2]; rats fed diet high in corn oil): 0.02 ± 0.0009 nmol/g wwt | free fatty acid myristic C14:0 (soleus muscle [2]; rats fed diet high in corn oil): 0.04 ± 0.006 nmol/g wwt | free fatty acid oleic C18:1 (soleus muscle [2]; rats fed diet high in corn oil): 0.13 ± 0.01 nmol/g wwt | free fatty acid palmitic C16:0 (soleus muscle [2]; rats fed diet high in corn oil): 0.12 ± 0.01 nmol/g wwt | free fatty acid palmitoleic (n-7) C16:1 (soleus muscle [2]; rats fed diet high in corn oil): 0.01 ± 0.0008 nmol/g wwt | free fatty acid palmitoleic (n-9) C16:1 (soleus muscle [2]; rats fed diet high in corn oil): 0.19 ± 0.008 nmol/g wwt | free fatty acid pentadecanoic C15:0 (soleus muscle [2]; rats fed diet high in corn oil): 0.05 ± 0.007 nmol/g wwt | free fatty acid stearic C18:0 (soleus muscle [2]; rats fed diet high in corn oil): 0.14 ± 0.008 nmol/g wwt | free fatty acid timnodonic C20:5 (soleus muscle [2]; rats fed diet high in corn oil): 0.05 ± 0.007 nmol/g wwt | free fatty acid vaccenic C18:1 (soleus muscle [2]; rats fed diet high in corn oil): 0.02 ± 0.002 nmol/g wwt | free fatty acid adrenic C22:4 (soleus muscle [2]; rats fed diet high in lard): 0.03 ± 0.005 nmol/g wwt | free fatty acid arachidic C20:0 (soleus muscle [2]; rats fed diet high in lard): 0.06 ± 0.007 nmol/g wwt | free fatty acid arachidonic C20:4 (soleus muscle [2]; rats fed diet high in lard): 0.01 ± 0.0005 nmol/g wwt | free fatty acid cervonic C22:6 (soleus muscle [2]; rats fed diet high in lard): 0.02 ± 0.002 nmol/g wwt | free fatty acid linoleic C18:2 (soleus muscle [2]; rats fed diet high in lard): 0.29 ± 0.004 nmol/g wwt | free fatty acid margaric C17:0 (soleus muscle [2]; rats fed diet high in lard): 0.08 ± 0.01 nmol/g wwt | free fatty acid myristic C14:0 (soleus muscle [2]; rats fed diet high in lard): 0.05 ± 0.01 nmol/g wwt | free fatty acid oleic C18:1 (soleus muscle [2]; rats fed diet high in lard): 0.2 ± 0.01 nmol/g wwt | free fatty acid palmitic C16:0 (soleus muscle [2]; rats fed diet high in lard): 0.24 ± 0.01 nmol/g wwt | free fatty acid palmitoleic (n-7) C16:1 (soleus muscle [2]; rats fed diet high in lard): 0.02 ± 0.0009 nmol/g wwt | free fatty acid palmitoleic (n-9) C16:1 (soleus muscle [2]; rats fed diet high in lard): 0.02 ± 0.003 nmol/g wwt | free fatty acid pentadecanoic C15:0 (soleus muscle [2]; rats fed diet high in lard): 0.12 ± 0.03 nmol/g wwt | free fatty acid stearic C18:0 (soleus muscle [2]; rats fed diet high in lard): 0.35 ± 0.04 nmol/g wwt | free fatty acid timnodonic C20:5 (soleus muscle [2]; rats fed diet high in lard): 0.02 ± 0.002 nmol/g wwt | free fatty acid vaccenic C18:1 (soleus muscle [2]; rats fed diet high in lard): 0.02 ± 0.002 nmol/g wwt | free fatty acid adrenic C22:4 (soleus muscle [2]; [4]): 0.05 ± 0.008 nmol/g wwt | free fatty acid arachidic C20:0 (soleus muscle [2]; [4]): 0.04 ± 0.005 nmol/g wwt | free fatty acid arachidonic C20:4 (soleus muscle [2]; [4]): 0.03 ± 0.007 nmol/g wwt | free fatty acid cervonic C22:6 (soleus muscle [2]; [4]): 0.08 ± 0.02 nmol/g wwt | free fatty acid linoleic C18:2 (soleus muscle [2]; [4]): 0.02 ± 0.004 nmol/g wwt | free fatty acid linolenic C18:3 (soleus muscle [2]; [4]): 0.01 ± 0.002 nmol/g wwt | free fatty acid margaric C17:0 (soleus muscle [2]; [4]): 0.02 ± 0.003 nmol/g wwt | free fatty acid myristic C14:0 (soleus muscle [2]; [4]): 0.01 ± 0.001 nmol/g wwt | free fatty acid oleic C18:1 (soleus muscle [2]; [4]): 0.34 ± 0.04 nmol/g wwt | free fatty acid palmitic C16:0 (soleus muscle [2]; [4]): 0.18 ± 0.01 nmol/g wwt | free fatty acid palmitoleic (n-7) C16:1 (soleus muscle [2]; [4]): 0.02 ± 0.001 nmol/g wwt | free fatty acid palmitoleic (n-9) C16:1 (soleus muscle [2]; [4]): 0.29 ± 0.03 nmol/g wwt | free fatty acid pentadecanoic C15:0 (soleus muscle [2]; [4]): 0.04 ± 0.005 nmol/g wwt | free fatty acid stearic C18:0 (soleus muscle [2]; [4]): 0.18 ± 0.02 nmol/g wwt | free fatty acid timnodonic C20:5 (soleus muscle [2]; [4]): 0.02 ± 0.003 nmol/g wwt | free fatty acid vaccenic C18:1 (soleus muscle [2]; [4]): 0.13 ± 0.02 nmol/g wwt | soleus muscle triglyceride content (soleus muscle [3]; diet with 40% added lard, 100 nM amylin or CGRP-1, 4.4 μM norepinephrine, control 1.14±0.16): 0.71 ± 0.07 µmol/g | soleus muscle free fatty acid content (soleus muscle [3]; diet with 40% added lard, 100 nM amylin or CGRP-1, 4.4 μM norepinephrine, control 43±8): 102 ± 12 nmol/g | soleus muscle triglyceride content (soleus muscle [3]; diet with 40% corn oil, 100 nM, control 0.89±0.06 μmol/g): 0.49±0.07 [mol/g | soleus muscle free fatty acid content (soleus muscle [3]; diet with 40% corn oil, 100 nM, control 35±4): 75 ± 9 nmol/g | soleus muscle triglyceride content (soleus muscle [3]; diet with 40% olive oil, 100 nM, control 0.83±0.1): 0.44 ± 0.4 µmol/g | soleus muscle free fatty acid content (soleus muscle [3]; diet with 40% olive oil, 100 nM, control 15±3): 85 ± 12 nmol/g
